The values below come from patent US11279690B2, “Inhibitors of glutaminyl cyclase” (VIVORIAN THERAPEUTICS N.V, priority 2017, dated 2022).

For one series, the target named is hQC (Homo sapiens, UniProt Q16769). Kind of series: QC inhibitor assay, determination of Ki at pH 6.0. In kind it is biochemical. Particulars: read-out: Ki hQC pH6.0. As for the experimental part: All measurements were performed with a BioAssay Reader HTS-7000Plus for microplates (Perkin Elmer) at 30° C. QC activity was evaluated fluorometrically using H-Gln-βNA. The samples consisted of 0.2 mM fluorogenic substrate, 0.25 U pyroglutamyl aminopeptidase (Unizyme, Horsholm, Denmark) in 0.2 M Tris/HCl, pH 8.0 containing 20 mM EDTA and an appropriately diluted aliquot of QC in a final volume of […]. Excitation/emission wavelengths were 320/410 nm. The assay reactions were initiated by addition of glutaminyl cyclase. QC activity was determined from a standard curve of β-naphthylamine under assay conditions. One unit is defined as the amount of QC catalyzing the formation of 1 μmol pGlu-βNA from H-Gln-βNA per minute under the described conditions.
Chain of hQC (Q16769 29-361): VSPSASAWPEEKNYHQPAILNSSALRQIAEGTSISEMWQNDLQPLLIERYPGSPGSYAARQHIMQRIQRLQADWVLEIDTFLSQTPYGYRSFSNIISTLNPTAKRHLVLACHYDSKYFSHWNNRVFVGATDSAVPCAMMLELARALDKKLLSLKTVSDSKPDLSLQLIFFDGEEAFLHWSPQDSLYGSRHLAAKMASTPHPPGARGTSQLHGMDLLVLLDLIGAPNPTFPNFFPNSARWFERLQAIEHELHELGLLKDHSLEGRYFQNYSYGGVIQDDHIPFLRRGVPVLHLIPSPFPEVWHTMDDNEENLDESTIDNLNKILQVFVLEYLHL
In a second fluorometric assay, QC was activity determined using H-Gln-AMC as substrate. Reactions were carried out at 30° C. utilizing the NOVOStar reader for microplates (BMG labtechnologies). The samples consisted of varying concentrations of the fluorogenic substrate, 0.1 U pyroglutamyl aminopeptidase (Qiagen) in 0.05 M Tris/HCl, pH 8.0 containing 5 mM EDTA and an appropriately diluted aliquot of QC in a final volume of 250 μl. Excitation/emission wavelengths were 380/460 nm. The assay reactions were initiated by addition of glutaminyl cyclase. QC activity was determined from a standard curve of 7-amino-4-methylcoumarin under assay conditions. The kinetic data were evaluated using GraFit software.
This novel assay was used to determine the kinetic parameters for most of the QC substrates. […] Samples consisted of the respective QC substrate, 0.3 mM NADH, 14 mM α-Ketoglutaric acid and 30 U/ml glutamate dehydrogenase in a final volume of 250 μl. Reactions were started by addition of QC and persued by monitoring of the decrease in absorbance at 340 nm for 8-15 min.
The initial velocities were evaluated and the enzymatic activity was determined from a standard curve of ammonia under assay conditions. All samples were measured at 30° C., using either the […]luor Plus or the Sunrise (both from TECAN) reader for microplates. Kinetic data was evaluated using GraFit software.
(§1) For inhibitor testing, the sample composition was the same as described above, except of the putative inhibitory compound added. For a rapid test of QC-inhibition, samples contained 4 mM of the respective inhibitor and a substrate concentration at 1 KM. For detailed investigations of the inhibition and determination of Ki-values, influence of the inhibitor on the auxiliary enzymes was investigated first. […] The inhibitory constant was evaluated by fitting the set of progress curves to the general equation for competitive inhibition using GraFit software. The inhibitor assay was performed at two different pH levels, pH 6.0 and pH 8.0: The respective pH value in the assay solution was adjusted using conventional methods.

A further series concerns the target hQPCTL (Homo sapiens, UniProt Q9NXS2). In words: Inhibitor assay, determination of Ki against the QC isoenzyme at pH 6. To be noted: read-out: Ki hQPCTL pH6. In kind it is biochemical. As for the experimental part:
as §1

A short description of series [1]: Pharmacokinetic parameters in mice, plasma, brain and CSF after oral administration. To be noted: mice (CD-1), 30 mg/kg orally in 0.8% Methocel. In kind it is in vivo, mice (strain CD-1). How it is done:
Three mice (strain CD-1) were administered orally 30 mg/kg of each test compound dissolved in 0.8% Methocel. Samples were taken at the time points 10 min, 0.5, 1, 2, 4 and 8 hr after test compound administration for plasma and brain collection.
The mice were anesthetized with Isoflurane. Approximate […] of each blood sample were collected via cardiac puncture for terminal bleeding into K2EDTA tubes. Blood samples were put on ice and centrifuged at 2000 g for 5 min to obtain plasma sample within 15 minutes. CSF collection: The animals were euthanized with pure CO2 inhalation. A mid line incision was made on the neck. The muscle under the skin was cut to expose the cisterna magna. The cisterna magna was penetrated with the sharp end of a capillary and CSF was collected via capillarity.
After CSF collection, a perfusion with 7x total mouse blood volume (approximate 15 ml) of ice-cold PBS (pH 7.4) was conducted via cardiac puncture before brain collection. A mid-line incision was made in the animal scalp. The brain was removed and rinsed with cold saline. Brain was placed into a screw-top tube and weighed. Brain samples were homogenized for 2 min with 3 volumes (v/w) of PBS (pH 7.4) and then analyzed with LC-MS/MS. The brain concentration was corrected with a dilution factor of 4 as following: Brain concentration=brain homogenate conc.×4, assuming 1 g wet brain tissue equals to 1 ml.
Plasma, brain and CSF samples were stored at approximately −80° C. until analysis.
For plasma samples: An aliquot of 20 μl sample was added with 200 μ IS (Diclofenac, 200 ng/mL) in ACN, the mixture was vortexed for 2 min and centrifuged at 12.000 rpm for 5 min. 1 μl supernatant was injected for LC-MS/MS analysis.
For diluted plasma samples: An aliquot of 4 μl sample was added with 16 μl blank plasma, mixed well, added with 200 μl IS (Diclofenac, 200 ng/ml) in ACN.
For Brain samples: Brain tissue was homogenized for 2 min with 3 volumes (v/w) of PBS. An aliquot of 20 μl sample was added with 200 μl IS (Diclofenac, 200 ng/ml) in ACN, the mixture was vortexed for 2 min and centrifuged at 12000 rpm for 5 min. 1 μl supernatant was injected for LC-MS/MS analysis.
For CSF samples: The CSF sample was added with corresponding 20 fold volume of IS (Diclofenac, 200 ng/ml) in ACN, the mixture was vortexed for 2 min. 3 μl supernatant was injected for LC-MS/MS analysis.

Chain of hQPCTL (Q9NXS2 whole entry): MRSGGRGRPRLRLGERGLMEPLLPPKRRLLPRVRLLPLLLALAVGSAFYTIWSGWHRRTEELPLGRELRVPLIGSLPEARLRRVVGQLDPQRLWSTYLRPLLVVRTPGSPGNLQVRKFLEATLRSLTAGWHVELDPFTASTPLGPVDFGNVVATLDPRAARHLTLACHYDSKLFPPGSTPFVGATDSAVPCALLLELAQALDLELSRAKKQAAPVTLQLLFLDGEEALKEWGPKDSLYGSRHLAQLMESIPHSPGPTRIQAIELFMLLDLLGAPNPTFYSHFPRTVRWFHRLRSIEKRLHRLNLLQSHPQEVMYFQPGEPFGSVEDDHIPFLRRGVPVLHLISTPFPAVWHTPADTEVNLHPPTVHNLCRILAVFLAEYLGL

Usually Ki stands for a dissociation constant, usually derived from enzyme kinetics or from competition with a known ligand. The term melting point denotes the temperature of the solid-liquid transition. For `CC(F)(F)COc1ccc([C@H]2CC(=O)N2c2ccc3[nH]cnc3c2)c(F)c1F` [Example 13, (R)-4-(4-(2,2-difluoropropoxy)-2,3-difluorophenyl)-1-(1H-benzo[d]imidazol-5-yl)azetidin-2-one], the melting point fell in the range of 173 to 177 °C. For the same compound, the Ki on hQC worked out at 2.3 nM. For the same compound, at hQPCTL, the Ki is 2 nM. In series [1], the blood-brain-barrier crossing behaviour result was “good” and the “AUC-values in the brain” value is on record as “good”.
Regarding `CC(F)(F)COc1cc(F)c([C@H]2CC(=O)N2c2ccc3[nH]cnc3c2)c(F)c1` [Example 15, (R)-4-(4-(2,2-difluoropropoxy)-2,6-difluorophenyl)-1-(1H-benzo[d]imidazol-5-yl)azetidin-2-one], the melting point lay within 158 to 162 °C. At hQC, the inhibitory constant (Ki) turned out to be 3.6 nM. Also, at hQPCTL, the Ki stood at 0.3 nM. Further, in series [1], the blood-brain-barrier crossing behaviour result is “good” and the “AUC-values in the brain” value is “good”.
Turning to `O=C1CC(c2ccccc2)N1c1ccc2[nH]cnc2c1` (racemic) [Example 1, 1-(1H-benzo[d]imidazol-5-yl)-4-phenylazetidin-2-one], the values for the Ki on hQC and on hQPCTL were 170 nM and 33.4 nM, respectively.
Turning to `O=C1C[C@H](c2ccc(OCCC(F)F)c(F)c2F)N1c1ccc2[nH]cnc2c1` [Example 7, (R)-4-(4-(3,3-difluoropropoxy)-2,3-difluorophenyl)-1-(1H-benzo[d]imidazol-5-yl)azetidin-2-one], the melting point was in the range of 165 to 170 °C. For the same compound, on hQC, the Ki turned out to be 2.4 nM. Further, the Ki on hQPCTL was found to be 1.1 nM. In addition, in series [1], the blood-brain-barrier crossing behaviour entry is “good” and the “AUC-values in the brain” value is given as “good”.
Turning to `O=C1C[C@H](c2c(F)cc(OCCC(F)F)cc2F)N1c1ccc2[nH]cnc2c1` [Example 9, (R)-4-(4-(3,3-difluoropropoxy)-2,6-difluorophenyl)-1-(1H-benzo[d]imidazol-5-yl)azetidin-2-one], in series [1], the blood-brain-barrier crossing behaviour entry is given as “good” and the “AUC-values in the brain” value is recorded as “good”.
`O=C1C[C@H](c2ccccc2)N1c1ccc2nc[nH]c2c1` [Example 2, (R)-1-(1H-benzo[d]imidazol-6-yl)-4-phenylazetidin-2-one]: the results for the Ki at hQC and at hQPCTL were 20.8 nM and 6.9 nM, respectively.
`O=C1C[C@H](c2ccc(OCCC(F)F)cc2F)N1c1ccc2[nH]cnc2c1` [Example 5, (R)-4-(4-(3,3-difluoropropoxy)-2-fluorophenyl)-1-(1H-benzo[d]imidazol-5-yl)azetidin-2-one]: the melting point was in the range of 150 to 155 °C. Moreover, the Ki at hQC amounted to 3.3 nM. The Ki on hQPCTL was 0.86 nM. In series [1], the blood-brain-barrier crossing behaviour result is listed as “good” and the “AUC-values in the brain” value is “good”.
Compound `CC(F)(F)COc1cc(F)c([C@@H]2CC(=O)N2c2ccc3[nH]cnc3c2)c(F)c1` [Example 16, (S)-4-(4-(2,2-difluoropropoxy)-2,6-difluorophenyl)-1-(1H-benzo[d]imidazol-5-yl)azetidin-2-one] came in with a melting point of 163 to 166 °C.
Take `COc1cc(F)c(C2CC(=O)N2c2ccc3nc[nH]c3c2)c(F)c1` (racemic) [Example 4, 1-(1H-benzo[d]imidazol-5-yl)-4-(2,6-difluoro-4-methoxyphenyl)azetidin-2-one]: the Ki on hQC was 8.6 nM. For the same compound, on hQPCTL, the Ki came to 2.5 nM. For the same compound, in series [1], the blood-brain-barrier crossing behaviour result is “good” and the “AUC-values in the brain” value is “good”.
Compound `CC(F)(F)COc1ccc([C@@H]2CC(=O)N2c2ccc3[nH]cnc3c2)c(F)c1F` [Example 14, (S)-4-(4-(2,2-difluoropropoxy)-2,3-difluorophenyl)-1-(1H-benzo[d]imidazol-5-yl)azetidin-2-one] displayed a melting point of 170 to 174 °C.
`CC(F)(F)COc1ccc([C@H]2CC(=O)N2c2ccc3[nH]cnc3c2)c(F)c1` [Example 11, (R)-4-(4-(2,2-difluoropropoxy)-2-fluorophenyl)-1-(1H-benzo[d]imidazol-5-yl)azetidin-2-one] displayed a melting point of 165 to 170 °C. Moreover, the Ki at hQC amounted to 3.8 nM. Besides, the Ki on hQPCTL turned out to be 1.3 nM. For the same compound, in series [1], the blood-brain-barrier crossing behaviour entry is recorded as “good” and the “AUC-values in the brain” value was “good”.
`O=C1C[C@@H](c2ccc(OCCC(F)F)c(F)c2F)N1c1ccc2[nH]cnc2c1` [Example 8, (S)-4-(4-(3,3-difluoropropoxy)-2,3-difluorophenyl)-1-(1H-benzo[d]imidazol-5-yl)azetidin-2-one] displayed a melting point of 148 to 153 °C.
Same read-out and setting: the figure for `O=C1C[C@@H](c2ccc(OCCC(F)F)cc2F)N1c1ccc2[nH]cnc2c1` [Example 6, (S)-4-(4-(3,3-difluoropropoxy)-2-fluorophenyl)-1-(1H-benzo[d]imidazol-5-yl)azetidin-2-one] is 137 to 142 °C; for `CC(F)(F)COc1ccc([C@@H]2CC(=O)N2c2ccc3[nH]cnc3c2)c(F)c1` [Example 12, (S)-4-(4-(2,2-difluoropropoxy)-2-fluorophenyl)-1-(1H-benzo[d]imidazol-5-yl)azetidin-2-one] it is 203 to 208 °C.
